Laboratory results taken from US12286401B2, “Small molecules that sensitize HIV-1 infected cells to antibody dependent cellular cytotoxicity” (THE TRUSTEES OF THE UNIVERSITY OF PENNSYLVANIA, priority 2018, dated 2025).

Tests used:
[1] = test system: CH58TF infected primary CD4+ T-cells; test: Recognition of HIV-1 infected cells by 17b (flow cytometry cell-surface staining); assay type: cell-based; conditions: Human immunodeficiency virus 1, T-cell, read-out: Fold Over DMSO (17b, n = 1)
Description: (§1) Cell-surface staining of primary CD4+ T cells from healthy HIV uninfected individuals or CEM-NKr cells is performed, as described in Prevost, “Influence of the Envelope gp120 Phe 43 Cavity on HIV-1 Sensitivity to Antibody-Dependent Cell-Mediated Cytotoxicity Responses,” 2017, J. Virol 91; Richard, “CD4 mimetics sensitize HIV-1-infected cells to ADCC,” 2015, Proc. Natl. Acad. Sci. USA, 112:E2687-2694; Richard, “Small CD4 Mimetics Prevent HIV-1 Uninfected Bystander CD4+ T Cell Killing Mediated by Antibody-dependent Cell-mediated Cytotoxicity,” 2016, EBioMedicine 3:122-134; Veillette, “The HIV-1 gp120 CD4-Bound Conformation Is Preferentially Targeted by Antibody-Dependent Cellular Cytotoxicity-Mediating Antibodies in Sera from HIV-1-Infected Individuals,” 2015, J. Virol., 89:545-551; Veillette, “Interaction with cellular CD4 exposes HIV-1 envelope epitopes targeted by antibody-dependent cell-mediated cytotoxicity,” 2014, J. Virol., 88:2633-2644; Richard, “Uninfected Bystander Cells Impact the Measurement of HIV-Specific Antibody-Dependent Cellular Cytotoxicity Responses,” 2018, MBio. 9(2): e00358-18; Richard, “BST-2 Expression Modulates Small CD4-Mimetic Sensitization of HIV-1-Infected Cells to Antibody-Dependent Cellular Cytotoxicity,” 2017, J. Virol. 91(11):e00219-17. Binding of HIV-1 infected cells by HIV+ sera (1:1000 dilution) or anti-Env Abs (such as 17b) is performed […] in vitro infection at 37° C. in presence of different concentrations of the MCG analogs or with equivalent volume of vehicle (DMSO). Cells infected with HIV-1 primary isolates are stained intracellularly for HIV-1 p24 using the Cytofix/Cytoperm Fixation/Permeabilization Kit (BD Biosciences, Mississauga, ON, Canada) and then fluorescent anti-p24 mAb (PE-anti-p24, clone KC57; Beckman Coulter/Immunotech, Hialeah, FL) (1:100 final concentration). The percentage of infected cells (p24^+ or GFP+ cells) is determined by gating the living cell population based on the viability dye staining. Samples are analyzed on an LSRII cytometer (BD Biosciences, Mississauga, ON, Canada) and data analysis is performed using FlowJo vX0.7 (Tree Star, Ashland, OR, USA).
(§2) Briefly, Primary CD4 T cells isolated from PBMC were infected with HIV-1CH58TF for 48 hours. For cell surface staining, 5 μg/ml 17b (FIG. 15A) or 1:1000 diluted HIV+ plasma (n=15) (FIG. 15B) were used in the presence of the different MCG analogs (50 μM), (+)-BNM-III-170 or with an equivalent volume of vehicle (DMSO). An Alexa Fluor 647-conjugated anti-human IgG secondary Ab was then used for fluorescent labeling. For ADCC (FIG. 15C), infected cells were used as target cells in a FACS-based ADCC assay that measures the killing of infected (p24+ cells). See, Madani, 2016, J. Virol., 90:5031-5046. The assay determines susceptibility to ADCC mediated by a 1/1,000 dilution of plasma from 15 HIV-1-infected individuals in the presence of the different MCG analogs (50 μM), (+)-BNM-III-170 (50 μM) or with an equivalent volume of vehicle (DMSO). Correlation between cell-surface staining with HIV+ plasma and ADCC was calculated using the Spearman rank correlation (FIG. 15D).

[2] = test system: HIV-1JR-FL EnvΔCT expressed at the surface of HOS cells; test: Cell-based ELISA (CBE), 17b readout; conditions: MCG analogs 50 μM; BNM-III-170 5 μM; 2G12 and DMSO normalized
Outline: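 HOS cells transiently expressing cytoplasmic-tail-truncated HIV-1JR-FL Env were treated 30 min at room temperature with compounds (50 μM), sCD4 ([…]) or DMSO, then 1 h with 17b antibody. Bound 17b was detected by HRP-conjugated anti-Fc chemiluminescence; values are fold over BNM-III-170 (5 μM), normalized to 2G12 and DMSO.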

[3] = test system: CH58TF infected primary CD4+ T-cells; test: HIV+ patient sera/plasma recognition of CH58TF infected primary CD4+ T-cells (flow cytometry cell-surface staining); assay type: cell-based, HIV-1; conditions: Human immunodeficiency virus 1, T-cell, read-out: Fold Over DMSO (patient sera, n = 3)
Description: as §1
HIV+ Patient Sera (n=3) Recognition of CH58TF Infected Primary CD4+ T-Cells
Staining with patient sera and 50 μM of compounds given as a fold change over DMSO (vehicle).
as §2

[4] = Solubility in PBS; assay type: physicochemical; conditions: Yes/NO
[5] = test system: primary CD4+ T cells infected with CH58 TF; test: FACS-based ADCC assay with patient sera/plasma; assay type: cell-based, HIV-1; conditions: Human immunodeficiency virus 1, CD4+ T, read-out: Fold over DMSO (% ADCC with ps, n = 3)
Description: Measurement of antibody or serum-mediated ADCC is performed with a FACS-based assay as described in Prevost, “Influence of the Envelope gp120 Phe 43 Cavity on HIV-1 Sensitivity to Antibody-Dependent Cell-Mediated Cytotoxicity Responses,” 2017, J. Virol 91; Richard, “CD4 mimetics sensitize HIV-1-infected cells to ADCC,” 2015, Proc. Natl. Acad. Sci. USA, 112:E2687-2694; Richard, “Small CD4 Mimetics Prevent HIV-1 Uninfected Bystander CD4+ T Cell Killing Mediated by Antibody-dependent Cell-mediated Cytotoxicity,” 2016, EBioMedicine 3:122-134; Veillette, “The HIV-1 gp120 CD4-Bound Conformation Is Preferentially Targeted by Antibody-Dependent Cellular Cytotoxicity-Mediating Antibodies in Sera from HIV-1-Infected Individuals,” 2015, J. Virol., 89:545-551; Veillette, “Interaction with cellular CD4 exposes HIV-1 envelope epitopes targeted by antibody-dependent cell-mediated cytotoxicity,” 2014, J. Virol., 88:2633-2644; Richard, “Uninfected Bystander Cells Impact the Measurement of HIV-Specific Antibody-Dependent Cellular Cytotoxicity Responses,” 2018, MBio. 9(2): e00358-18; Richard, “BST-2 Expression Modulates Small CD4-Mimetic Sensitization of HIV-1-Infected Cells to Antibody-Dependent Cellular Cytotoxicity,” 2017, J. Virol. 91(11):e00219-17. This assay specifically measures ADCC activity against productively infected cells and is not affected by the confounding effect of uninfected bystander cells. See, Richard, “Uninfected Bystander Cells Impact the Measurement of HIV-Specific Antibody-Dependent Cellular Cytotoxicity Responses,” 2018, MBio., 9(2): e00358-18.
Briefly, primary CD4+ T cells isolated from healthy HIV-1-negative individuals or CEM-NKr cells are infected with HIV viruses. Forty-eight hours post-infection, cells are incubated with autologous PBMC (effector:target cell ratio of 10:1) in the presence of 1:1000 HIV+ sera dilution or anti-Env Abs (5 μg/mL) alone or in combination with increasing concentration of MCG analogs. Infected cells are identified by intracellular staining for HIV-1 p24 or GFP expression (for GFP expressing infectious molecular clones) and the percentage of cytotoxicity is calculated the following formula as described.
For cells infected with HIV-1 primary isolates, infected cells are identified by intracellular staining for HIV-1 p24. In that context, the percentage of cytotoxicity is calculated with the following formula by gating infected lived target cells: […]
The ADCC susceptibility of primary CD4+ T cells infected with CH58 TF mediated by HIV+ plasma+/−MCG analogs also was evaluated using a FACS-based assay as previously reported. See, Ding, 2016, J Virol., 90:2127-2134; and Richard, 2018, MBio 9.
as §2

Structure (SMILES) | fold induction at 50 µM [1] | Fold over BNM-III-170 - 17b binding (±0.05) [2] [fold] | fold induction at 50 µM [3] | Solubility (in PBS) [4] | fold induction at 50 µM [5]
CCS(=O)(=O)N1CCNC(C(=O)Nc2ccc(Cl)c(F)c2)C1 (stereo not shown) [MCG-III-212-A02] | 3.95 | 0.36 | 1.85 | Yes | –
CS(=O)(=O)N1CCOC(C(=O)Nc2ccc(Cl)c(F)c2)C1 (stereo not shown) [MCG-III-211-A01] | 2.63 | 0.28 | 1.47 | Yes | –
CS(=O)(=O)N1CCC[C@H](C(=O)Nc2ccc(Cl)c(Br)c2)C1 [(S)-MCG-III-085-A05] | 2.15 | 0.16 | 1.11 | Yes | –
CS(=O)(=O)N1CCC[C@H](C(=O)Nc2ccc(F)c(Cl)c2)C1 [(S)-MCG-III-085-A02] | 2.15 | 0.22 | 1.13 | Yes | –
CCS(=O)(=O)N1CCC[C@H](C(=O)Nc2ccc(Cl)c(Cl)c2)C1 [(S)-MCG-III-085-C03] | 3.83 | 0.25 | 1.65 | Yes | –
Cn1cnc(S(=O)(=O)N2CCN(C(=O)OC(C)(C)C)C(C(=O)Nc3ccc(Cl)c(F)c3)C2)c1 (stereo not shown) [MCG-III-212-A04] | 1.04 | 0.06 | 0.924 | Yes | –
CCS(=O)(=O)N1CCC[C@H](C(=O)Nc2ccc(Cl)c(Br)c2)C1 [(S)-MCG-III-085-C05] | 1.77 | 0.26 | 1.04 | Yes | –
CS(=O)(=O)N1CCC[C@H](C(=O)Nc2ccc(F)c(F)c2)C1 [(S)-MCG-III-085-A04] | 3 | 0.10 | 1.31 | Yes | –
CCS(=O)(=O)N1CCOC(C(=O)Nc2ccc(Cl)c(F)c2)C1 (stereo not shown) [MCG-III-211-A02] | 3.64 | 0.33 | 1.81 | Yes | –
O=C(Nc1ccc(Cl)c(F)c1)C1CNCCN1 (stereo not shown) [MCG-III-216-A01] | 1.73 | 0.21 | 0.999 | Yes | –
O=C(Nc1ccc(Cl)c(F)c1)C1CN(S(=O)(=O)c2ccccc2)CCN1 (stereo not shown) [MCG-III-216-A03] | 1.47 | 0.11 | 1.05 | Yes | –
Cn1cnc(S(=O)(=O)N2CCNC(C(=O)Nc3ccc(Cl)c(F)c3)C2)c1 (stereo not shown) [MCG-III-216-A04] | 1.24 | 0.10 | 0.845 | Yes | –
CS(=O)(=O)N1CCC[C@H](C(=O)Nc2ccc(Br)c(Cl)c2)C1 [(S)-MCG-III-085-A06] | 3.3 | 0.14 | 1.61 | Yes | –
CCS(=O)(=O)N1CCC[C@H](C(=O)Nc2ccc(F)c(Cl)c2)C1 [(S)-MCG-III-085-C02] | 2.15 | 0.20 | 1.19 | Yes | –
CC(C)(C)OC(=O)N1CCN(S(C)(=O)=O)CC1C(=O)Nc1ccc(Cl)c(F)c1 (stereo not shown) [MCG-III-212-A01] | 0.968 | 0.06 | 0.982 | Yes | –
COc1ccccc1NC(=O)[C@H]1CCCN(S(C)(=O)=O)C1 [(S)-MCG-III-027-C05] | 1.5 | – | 1.76 | Yes | 0.46
CS(=O)(=O)N1CCC[C@H](C(=O)Oc2ccc(Cl)c(F)c2)C1 [(S)-MCG-III-213-A01] | 1.08 | 0.07 | 1.08 | Yes | –
CS(=O)(=O)N1CC(C(=O)Nc2ccc(Cl)c(F)c2)Cc2ccccc21 (stereo not shown) [MCG-III-214-A01] | 1.39 | 0.24 | 1.29 | Yes | –
Cn1cnc(S(=O)(=O)N2CCC[C@H](C(=O)Oc3ccc(Cl)c(F)c3)C2)c1 [(S)-MCG-III-213-A04] | 1.06 | 0.10 | 1.07 | Yes | –
